According to patent US5908868A, “Retinol derivatives useful for enhancing immune response” (priority 1995, dated 1999):
“Also recorded” adds a separate entry of the source. Like-named read-outs stand apart in the source and are kept apart here.

Assays:
[1] = cited from earlier work
26 mammalian cells = experiment: 14HRR production from 3H retinol in mammalian cell lines; format: in vitro ADME; settings: 3H retinol bound to fetal calf serum
From the text: The use of ^3 H retinol bound to fetal calf serum was used as an assay to test for P3 in other cell lines.
The use of ^3 H retinol bound to fetal calf serum was used as an assay to test for 14HRR in other cell lines.

EL-4 = experiment: Retinol metabolism; format: in vitro ADME, mouse
Procedure: (§1) FBS. The FBS was preincubated at room temperature with 14.4 uCi [^3 H
(§2) retinol (NEN) for 4 h. The cell pellet was washed twice with PBS. The
(§3) retinoid were extracted according to MClean et al. 90 and separated on an
(§4) analytical c18 reverse phase column according to FIG. 7. The DPM wer
(§5) determined using an online scintillation counter.

SLA = experiment: Retinol metabolism; format: in vitro ADME, mouse
Procedure: as §1, §2, §3, §4, §5

P388D.1 = experiment: Retinol metabolism; format: in vitro ADME, mouse
Procedure: as §1, §2, §3, §4, §5

Hela = experiment: Retinol metabolism; format: in vitro ADME, human
Procedure: as §1, §2, §3, §4, §5

5/2 = experiment: Retinol metabolism; format: in vitro ADME, human
Procedure: as §1, §2, §3, §4, §5

Raji (4°) = experiment: Retinol metabolism; format: in vitro ADME, human
Procedure: as §1, §2, §3, §4, §5

5/2 cells = format: in vitro ADME, human
Procedure: 5/2 cells (10^6 cells in 10 ml HB 101 medium) were incubated with all-trans-[^3 H] retinol (10 uCe/ml). After 24 hours, retinoids were extracted from the washed cell pellet and unlabeled marker retinoids were added. The crude extract was loaded on an analytical reversed-phase C-18 column. Retinoids were eluted with the shown linear gradient of water/methanol/chloroform. The flow rate was 0.5 ml/min. DPM were determined with an on line scintillation counter. Reference retinoids were the all-trans forms of 0: 3,4-didehydroretinoic acid, 1: all-trans-retinoic acid, 2: 3,4-didehydroretinol, 3: retinol, 4: retinyl linoleate, 5: retinyl oleate, 6: retinyl palmitate. Shaded area corresponds to P3. Cross-hatched area corresponds to P1.
Lymphoblastoid 5/2 cells grown in the presence of 10^-6 M retinol were spiked with ^3 H-labeled retinol. After 16 hours the cell pellet was delipidated according to the method of McLean et al. and separated on a reversed phase C-18 HPLC column (FIG. 7). […] Three peaks, P1, P2 and P3, could not be immediately identified. One peak eluting at 36-39 minutes (corresponding 83% methanol 7% water) provisionally called P3, but now known as 14HRR, was unusual because unlike P1 eluting at 31-34 minutes, its relative amount increased when the retinol concentration was lowered or when retinol was given to the cells bound to RBP. […]

Reversion to retinol = format: in vitro ADME
B lymphocytes = experiment: B cell growth/survival; format: cell-based; settings: on a concentration basis
[2] = Chemical stability during extraction; format: physicochemical

In the case of `CC1=C(/C=C/C(C)=C/C=C/C(C)=C/CO)C(C)(C)CCC1` [retinol, all-trans retinol], the half-life ([1]; cell culture, serum-free medium (32)) is given as under 24 h, the half-life ([1]; serum-free tissue culture medium (32)) is given as about 24 h and the “radioactivity peak at 14HRR (P3) position” value (26 mammalian cells) is given as “radioactivity peak at the position where 14HRR normally elutes; also recorded: radioactivity peak at the position where P3 normally elutes”. For the same compound, the Total cts. (EL-4; EL-4) was 2.8 × 10^5 cts, the “Ester (% of taken up retinol)” value (EL-4; EL-4, overnight) was 44% and the “P3 (% of taken up retinol)” value (EL-4; EL-4, overnight) was 5%. For the same compound, the “Retinol (% of taken up retinol)” value (EL-4; EL-4, overnight) was 40%, the Total cts. (SLA) was 6.1 × 10^5 cts and the “Ester (% of taken up retinol)” value (SLA; overnight) was 9%. For the same compound, the “P3 (% of taken up retinol)” value (SLA; overnight) was 3%, the “Retinol (% of taken up retinol)” value (SLA; overnight) was 85% and the Total cts. (P388D.1; P388D.1) was 1.4 × 10^5 cts. For the same compound, the “Ester (% of taken up retinol)” value (P388D.1; P388D.1, overnight) was 26%, the “P3 (% of taken up retinol)” value (P388D.1; P388D.1, overnight) was 0.5% and the “Retinol (% of taken up retinol)” value (P388D.1; P388D.1, overnight) was 71%. For the same compound, the Total cts. (Hela) was 1.0 × 10^5 cts, the “Ester (% of taken up retinol)” value (Hela; overnight) was 20% and the “P3 (% of taken up retinol)” value (Hela; overnight) was 3%. The “Retinol (% of taken up retinol)” value (Hela; overnight) was 71%, the Total cts. (5/2; 5/2) was 5.7 × 10^5 cts and the “Ester (% of taken up retinol)” value (5/2; 5/2, overnight) was 24%. For the same compound, the “P3 (% of taken up retinol)” value (5/2; 5/2, overnight) was 4%, the “Retinol (% of taken up retinol)” value (5/2; 5/2, overnight) was 67% and the Total cts. (Raji (4°); 2.5 × 10^6 cells) was 2.5 × 10^5 cts. For the same compound, the “Ester (% of taken up retinol)” value (Raji (4°); overnight) was 0%, the “P3 (% of taken up retinol)” value (Raji (4°); overnight) was 0% and the “Retinol (% of taken up retinol)” value (Raji (4°); overnight) was 99%. The “retinoids identified after 3H-retinol” value (5/2 cells) was 13-cis retinol, all-trans retinol, and several retinyl esters were identified and the “retinoids not detected after 3H-retinol” value (5/2 cells) was “Retinoic acid, 3,4-didehydroretinol acid as well as 3,4-didehydroretinol were not detectable”.
With `CC(C=CC=C(C)C(O)CO)=CC=C1C(C)=CCCC1(C)C` (stereo not drawn) [14HRR, 14-hydroxy-4,14-retro-retinol] the reversion to retinol (Reversion to retinol) was “does not revert to retinol”, the “activity relative to all-trans retinol in B cells” value (B lymphocytes) was 10-30 fold more active and the “stability to acid extraction” value ([2]; acid extraction step) was “does not survive an acid extraction step”. For the same compound, the stability in chloroform ([2]; chloroform) was “unstable in chloroform”.
